Experimental data published in patent US20180161461A1, “Rare Earth Oxide Particles and Use Thereof in Particular In Imaging” (Ecole Polytechnique, priority 2012, published 2018).

Tests used:
[1] = logarithmic dissociation constant for the Gd-ligand complexes (GdL); cited from earlier work
[2] = proton resonance frequency 20 MHz, available temperature closest to 37° C.; cited from earlier work
[3] = Measurement of relaxation time / relaxivity, Bruker minispec relaxometer; assay type: physicochemical; details: relaxivity per Gd ion, 20 MHz, 37° C., ultrapure water
Procedure: The relaxation times relating to the particles obtained were measured on a Bruker minispec NMS 120 relaxometer (Bruker, Rheinstetten, Germany) operating at a proton resonance frequency of ω/2π=20 MHz and a temperature of 37° C. In order to avoid any confusion between angular frequency ω and the frequency v, here, all of the frequencies given in Hz correspond to ω/2π=v. The spectrometer was calibrated using standard water/oil mixtures with known component ratios, in accordance with the manufacturer's instructions. The pre-diluted samples were further diluted directly in 10 mm NMR (nuclear magnetic resonance) tubes using a series containing 10×1 mL samples. All of the dilutions were made using ultrapure water. The tubes were sealed and placed in a water bath at 37° C. for at least 10 minutes before measurement, The relaxation times T1 were determined by using the inversion-recovery pulse sequence with a repetition time TR=5 s. […] In general, 100 echoes with an echo time TE between 0.5 and 2 ms depending on the concentration of the sample were recorded. […]
The relaxivities per particle were determined by firstly calculating the volume of a particle. To this end, the nanoparticles were assumed to be homogeneous in dimension and spherical with a diameter equal to the number average diameter determined by DLS (dynamic light scattering). […]

SMILES: CNC[C@H](O)[C@@H](O)[C@H](O)[C@H](O)CO.CNC[C@H](O)[C@@H](O)[C@H](O)[C@H](O)CO.O=C([O-])CN(CCN(CC(=O)[O-])CC(=O)O)CCN(CC(=O)[O-])CC(=O)O.[Gd+3] [Magnevist]
- pKGdL [1]: 22.5
- r1 [2]: 3.8 mM⁻¹ s⁻¹

SMILES: CCOc1ccc(CC(CN(CCN(CC(=O)[O-])CC(=O)[O-])CC(=O)[O-])N(CC(=O)[O-])CC(=O)[O-])cc1.[Gd+3].[Na+].[Na+] (stereo not drawn) [Eovist]
- r1 [2]: 5.4 mM⁻¹ s⁻¹

SMILES: CNC(=O)CN(CCN(CCN(CC(=O)[O-])CC(=O)NC)CC(=O)[O-])CC(=O)[O-].[Gd+3] [Omniscan]
- pKGdL [1]: 16.9
- r1 [2]: 3.96 mM⁻¹ s⁻¹

SMILES: O=C([O-])CN1CCN(CC(=O)[O-])CCN([C@H](CO)[C@H](O)CO)CCN(CC(=O)[O-])CC1.[Gd+3] (racemic) [Gadovist]
- pKGdL [1]: 21.1
- r1 [2]: 4.8 mM⁻¹ s⁻¹

SMILES: O=C([O-])CN(CCN(CC(=O)[O-])CC(COP(=O)([O-])OC1CCC(c2ccccc2)(c2ccccc2)CC1)N(CC(=O)[O-])CC(=O)[O-])CC(=O)[O-].[Gd+3].[Na+].[Na+].[Na+] (stereo not drawn) [Ablavar]
- pKGdL [1]: 6.6

SMILES: CNC[C@H](O)[C@@H](O)[C@H](O)[C@H](O)CO.CNC[C@H](O)[C@@H](O)[C@H](O)[C@H](O)CO.O=C([O-])CN(CCN(CC(=O)[O-])CC(=O)O)CCN(CC(=O)O)C(COCc1ccccc1)C(=O)[O-].[Gd+3] (stereo not drawn) [MultiHance]
- pKGdL [1]: 22.6
- r1 [2]: 4.39 mM⁻¹ s⁻¹

SMILES: CC(O)CN1CCN(CC(=O)[O-])CCN(CC(=O)[O-])CCN(CC(=O)[O-])CC1.[Gd+3] (stereo not drawn) [Prohance]
- pKGdL [1]: 23.8
- r1 [2]: 3.7 mM⁻¹ s⁻¹

SMILES: COCCNC(=O)CN(CCN(CCN(CC(=O)[O-])CC(=O)NCCOC)CC(=O)[O-])CC(=O)[O-].[Gd+3] [OptiMark]
- pKGdL [1]: 16.8
- r1 [2]: 4.7 mM⁻¹ s⁻¹

SMILES: [Cl][Gd]([Cl])[Cl] [GdCl3]
- r1^ion [3]: 10.4 mM⁻¹ s⁻¹
